Test results taken from patent US11000538B2, “Composition for enhancing exercise ability or anti-fatigue comprising novel ginsenoside” (priority 2018, dated 2021).
“Also recorded” adds a separate entry of the source.

Tests used:
[1] = test system: mouse-derived myocyte lines (C2C12; ATCC); experiment: Mitochondrial production in differentiated myocytes (Mitotracker Green staining, Q-PCR of mitochondrial marker genes); format: cell-based; settings: 20 pg/ml, 24 hours
Protocol: (§1) Ginseng seed-derived ginsenosides were administered to mouse-derived myocyte lines (C2C12; ATCC) to observe changes in mitochondrial amount and fatty acid oxidation in myocytes.
(§2) The mouse-derived myocyte lines (C2C12; ATCC) were cultured using Dulbecco's Modified Eagle's Medium (DMEM; Sigma) containing […] fetal bovine serum (Hyclone) and 1% penicillin/streptomycin (Sigma). The cells were induced to be 100% confluent for differentiation into myocytes and then differentiated using a DMEM medium containing 2% horse serum (Hyclone) and 1% penicillin/streptomycin (Sigma). Medium was changed daily, with differentiation for a total of a week.
(§3) After treating the differentiated myocytes with the novel ginsenoside GS #10 of one embodiment of the present disclosure and the other ginsenosides GS #01-GS #06 isolated from the existing ginseng seed extract at a concentration of 20 pg/ml for 24 hours, respectively, the amount of mitochondria in myocytes was observed by staining with a Mitotracker Green™ (Invitrogen) reagent. mRNA expression levels of mitochondrial marker genes were measured using Q-PCR. As positive controls, a combination of GW501516 and Metformin (GW/Met; treated at 10 μM each), which are candidates for exercise mimetics and are known to improve exercise ability by activating PPARδ (Peroxisome proliferator-activated receptor delta) and AMPK (AMP-activated protein kinase), respectively, was used. The mitochondrial number measured as a result of the test is shown in FIG. 11, and the mitochondrial marker gene expression levels are shown in FIGS. 12 to 14.
(§4) The experiments were performed in the same manner as in Test Examples 1 and 2 above, respectively.
(§5) First, the C2C12 myocytes differentiated in the same manner as in Test Example 1 above were treated with ginsenosides Rg1, Rg3, and Rb1, which are comparative examples of the present disclosure, and the novel ginsenoside GS #10 of one embodiment of the present disclosure, respectively, and then mitochondria and marker genes were observed (FIGS. 21 to 25). In addition, in the same manner as in Test Example 2 above, after administration of 20 mg/kg each of ginsenosides Rg1, Rg3, Rb1, which are comparative examples of the present disclosure, and the novel ginsenoside GS #10 of one embodiment of the present disclosure for 6 weeks to the mice, the exercise ability was observed.

Sprague-Dawley (SD) mice = experiment: Treadmill experiment after 6 weeks of oral administration (muscle mitochondrial genes, exercise time, plasma lactate); format: in vivo; settings: 20 mg/kg orally for 6 weeks; for expression of mitochondrial marker gene in muscle (mitochondrial activity): muscle tissue after treadmill, FIGS. 16-18; for exercise time / exercise ability on treadmill: run until exhausted, FIGS. 19, 25
Protocol: The following experiment was performed to confirm whether the exercise ability improving effect due to the increased mitochondrial production and lipid metabolism promotion of the ginseng seed-derived novel ginsenoside (GS #10) confirmed in Test Example 1 above was also shown at the actual individual level. 20 mg/kg each of the novel ginsenoside GS #10 of one embodiment of the present disclosure and the other ginsenosides GS #01-GS #06 isolated from the existing ginseng seed extract was orally administered to 39-week-old female Sprague-Dawley (SD) mice, and 10 mg/kg each thereof was orally administered to the control group GW/Met for 6 weeks. In order to improve the treadmill adaptability during the six-week experiment, mice were placed on the treadmill every two weeks to familiarize them with the use of the treadmill. After six weeks of administration, mice were placed on a treadmill to run on the treadmill. The exercise time was until the mice were exhausted and pushed down from the treadmill, and the mice which finished the exercise was immediately extracted of muscle tissue and plasma by necropsy. […] The expression patterns of mitochondrial marker genes in muscle are shown in FIGS. 16 to 18, and exercise time and plasma lactate in blood are shown in FIGS. 19 and 20.
as §4, §5

[2] = test system: mouse-derived myocyte lines (C2C12; ATCC); experiment: Fatty acid oxidation in differentiated myocytes; format: cell-based; settings: 20 pg/ml, 24 hours, FIG. 15
Protocol: as §1, §2
as §3, with “As positive controls, a combination of GW501516 and Metformin (GW/Met; treated at 10 μM each), which are candidates for exercise mimetics and are known to improve exercise ability by activating PPARδ (Peroxisome proliferator-activated receptor delta) and AMPK (AMP-activated protein kinase), respectively, was used.” left out

SH-SY5Y cells = experiment: Cytotoxicity, Cell Counting Kit (CCK)-8; format: cell-based; settings: SH-SY5Y cells, 0.1, 1, 5, 10, 20 and 50 μM; FIG. 27
Protocol: The cell growth in the presence of novel ginsenoside GS #10 of one embodiment of the present disclosure was evaluated using Cell Counting Kit (CCK)-8 in order to exclude the possibility that ginsenosides may affect exercise ability enhancing efficacy through cytotoxic activity. The experimental method is as follows.
10 μl of a CCK-8 reagent was added to SH-SY5Y cells in culture (Dojindo, Md., USA) with reference to a 96-well plate and left at 37° C. for 2 hours, and then absorbance was measured at 450 nm. The cell viability was marked as a percentage (%) of the absolute optical density of each sample relative to the untreated sample. At this time, the concentration of the novel ginsenoside GS #10, which is an example of the present disclosure, contained in the medium in which the cells were cultured was 0.1, 1, 5, 10, 20, and 50 μM, respectively.

[3] = test system: C2C12 myoblasts induced with chronic inflammation (IL-6); experiment: Cell growth recovery of myoblasts with IL-6-induced chronic inflammation; format: cell-based, mouse; settings: IL-6 10 ng/ml for 4 weeks, then 10 pg/ml for 48 hours; FIGS. 28, 32
Description: Muscle cells are made from myosatellite cells present inside the muscle. They are usually in a quiescent state, and when muscle damage such as exercise is applied, they wake up and are divided to form myoblasts, and these myoblasts differentiate to form myocytes. These muscle stem cells are known to decrease in number and activity with age. In this process, the inflammatory response, especially IL-6 is involved. Therefore, it was confirmed through the following experiment whether the novel ginsenoside of the embodiment of the present disclosure can restore cell division of muscle stem cells under IL-6-mediated muscle stem cell growth inhibition conditions.
Since muscle stem cells are not available in the form of cell lines, mouse-derived muscle cell lines (C2C12, ATCC) located between muscle stem cells and myoblasts were cultured using Dulbecco's Modified Eagle's Medium (Sigma) containing 10% fetal bovine serum (Hyclone) and 1% penicillin/streptomycin (Sigma). […] Accordingly, in order to induce an inflammatory state due to aging, IL-6 (10 ng/ml) was treated for 4 weeks to induce myoblast aging. […] Myoblasts of this state were treated with the novel ginsenoside GS #10 of one embodiment of the present disclosure and the other ginsenosides GS #01-GS #06 isolated from the existing ginseng seed extract at a concentration of 10 pg/ml each for 48 hours. […]

C2C12 myoblasts = experiment: Myocyte differentiation promotion (mRNA of MyoG, α-actin, myosin); format: cell-based, mouse; settings: 10 pg/ml during 4 days of differentiation in 2% horse serum; FIGS. 29-31, 33-35
Protocol: As muscles decrease with age, supplementing muscle mass by differentiating myoblasts into myocytes is an essential process for maintaining muscle mass. […] During the differentiation period, the novel ginsenoside GS #10 of one embodiment of the present disclosure and the other ginsenosides GS #01-GS #06 isolated from the existing ginseng seed extract were treated at a concentration of 10 pg/ml, respectively. The control is differentiation medium not treated with ginsenosides. […] After 4 days of differentiation, mRNA was extracted from each treatment group using Trizol™ reagent (Thermo Fisher Scientific), and then cDNA was synthesized using a RevertAid 1st strand cDNA synthesis kit (Thermo Fisher Scientific). The expression levels of myoG, α-actin and myosin, which are muscle fiber marker genes, were observed using a temperature-cycling nucleic acid amplifier (CFX96 thermocycle, Bio-Rad).
The experiment was performed in the same manner as in Test Examples 5 and 6.

Balb/c mice = experiment: Anti-fatigue efficacy in sleep-deprivation fatigue model (forced swim test, plasma lactate); format: in vivo; settings: oral, 2 weeks; GS #10 10 and 50 mg/kg, ginseng seed extract 50 mg/kg; 24 hours sleep deprivation; FIGS. 36, 37
Description: In Test Example 2 above, it was confirmed that the novel ginsenoside GS #10 of one embodiment of the present disclosure improved exercise ability and lowered plasma lactate in blood that is increased by exercise. […] Experimental methods are the same as those described in Cho et al., Biol Pharm Bull 33 (7):1128, which is incorporated herein by reference in its entirety. Balb/c mice purchased from Samtako were adapted to the age of 12 weeks and then divided into a fatigue-induced group of 32 mice and a control of 8 mice. The fatigue-induced group was divided into 4 groups again, each of 8 mice, of which is the novel ginsenoside GS #10 10 mg/kg treatment group (F/GS #10 10), 50 mg/kg treatment group (F/GS #10 50), ginseng seed extract 50 mg/kg treatment group (F/GSE #10 50), and untreated group (Fatigue). The ginseng seed extract is a comparative example of the present disclosure, and is a ginseng seed (seeds of Panax ginseng) methanol extract used in the isolation of ginsenoside in Example 1 described above herein. […] Then, while performing the FST (forced swim test) 6 minutes, the time during which the mice of each experiment group floated still on the water without swimming was measured to calculate fatigue. Thereafter, the plasma lactate in blood was measured, and the degree of accumulation of the fatigue substance was observed. […]

Compound | mitochondrial biosynthesis ability / mitochondria production (mitochondrial number; PGC1α, NRF1, tfam expression) ([1]; FIGS. 11-14, 21-24) | expression of mitochondrial marker gene in muscle (mitochondrial activity) (Sprague-Dawley (SD) mice) | exercise time / exercise ability on treadmill (Sprague-Dawley (SD) mice) | mitochondrial biosynthesis ability / mitochondria production (mitochondrial number; PGC1α, NRF1, tfam expression) ([1]; FIGS. 11-14, 21-24, listed as Rb1) | fatty acid oxidation in myocytes [2] | lactic acid concentration (plasma lactate), muscle fatigue marker (Sprague-Dawley (SD) mice; blood after treadmill, FIGS. 20, 26) | cytotoxicity (cell viability, % of untreated) (SH-SY5Y cells) | cell growth recovery of aged myoblasts (number of cells) [3] | myocyte differentiation marker gene expression (MyoG, α-actin, myosin) (C2C12 myoblasts) | fatigue relief (FST immobility time, plasma lactate) (Balb/c mice)
CC(C)=CCC[C@](C)(O[C@@H]1O[C@H](CO)[C@@H](O)[C@H](O)[C@H]1O)[C@H]1CC[C@]2(C)[C@@H]1[C@H](O)C[C@@H]1[C@@]3(C)CC[C@H](O)C(C)(C)[C@@H]3[C@@H](O[C@@H]3O[C@H](CO)[C@@H](O)[C@H](O)[C@H]3O)C[C@]12C [Rg1, ginsenoside Rg1] | did not increase mitochondria production | – | – | – | – | – | – | – | – | –
CC(C)=CCC[C@](C)(O[C@@H]1O[C@H](CO[C@@H]2OC[C@H](O)[C@H](O)[C@H]2O)[C@@H](O)[C@H](O)[C@H]1O)[C@H]1CC[C@]2(C)[C@@H]1[C@H](O)C[C@@H]1[C@@]3(C)CC[C@H](O[C@@H]4O[C@H](CO)[C@@H](O)[C@H](O)[C@H]4O[C@@H]4O[C@H](CO)[C@@H](O)[C@H](O)[C@H]4O)C(C)(C)[C@@H]3CC[C@]12C [GS #06, ginsenoside Rb2, reference compound] | a slight mitochondria increasing efficacy | insignificant | insignificant | – | – | – | – | – | – | –
CC(C)=CCC[C@](C)(O[C@@H]1O[C@H](CO[C@@H]2O[C@H](CO)[C@@H](O)[C@H](O)[C@H]2O)[C@@H](O)[C@H](O)[C@H]1O)[C@H]1CC[C@]2(C)[C@@H]1[C@H](O)C[C@@H]1[C@@]3(C)CC[C@H](O[C@@H]4O[C@H](CO)[C@@H](O)[C@H](O)[C@H]4O[C@@H]4O[C@H](CO)[C@@H](O)[C@H](O)[C@H]4O)C(C)(C)[C@@H]3CC[C@]12C [GS #05, ginsenoside Rb1, reference compound] | a slight mitochondria increasing efficacy | insignificant | insignificant | did not increase mitochondria production | – | – | – | – | – | –
C[C@@H]1CC(=O)C(C)(C)C2C1C1C[C@@H](O)C3C([C@]4(C)CC[C@H](C(C)(C)O)O4)CC[C@@]3(C)[C@]1(C)C[C@@H]2O[C@H]1OC(CO)[C@H](O)C(O)C1O[C@H]1OC(CO)[C@H](O)C(O)C1O (stereo partly drawn) [GS #10, (20S,24R)-6-O-β-D-glucopyranosyl(1→2)-β-D-glucopyranoside-dammar-3-one-20,24-epoxy-6a,12b,25-triol] | the most excellent; also recorded: showed mitochondria increasing efficacy | significantly increased | doubled the exercise time; also recorded: significant exercise ability improvement | – | increased the most | the lowest pattern; also recorded: anti-fatigue effect | did not exhibit cytotoxicity up to 50 μM | a significant effect; also recorded: showed the effects of promoting myoblast growth | a significant increase in marker gene expression; also recorded: myocyte differentiation | reduce the symptoms caused by fatigue in a concentration-dependent manner
ginsenoside Rg3 | did not increase mitochondria production | – | – | – | – | – | – | – | – | –
